For this assay, the system named is rat medium spiny neurons (DARPP32 positive neurons). As to the kind of experiment: Survival of primary medium spiny neurons injured by glutamate. Particulars: glutamate 40 μM, 20 min. It is filed as cell-based. As for the experimental part: Rat MSN of striatum were cultured as described (Ivkovic S, et al, (1999) The Journal of neuroscience: the official journal of the Society for Neuroscience 19(13): 5409-5419).
Briefly pregnant female rats of 15 days gestation were killed by cervical dislocation (Rats Wistar; Janvier) and the foetuses removed from the uterus. The embryonic midbrains were removed and placed in ice-cold medium of Leibovitz 15 (L15; PanBiotech, Ref P04-27055, Batch: 8810315) containing 2% of Penicillin-Streptomycin (PS; PanBiotech, ref: P06-07100, Batch: 7511015) and 1% of bovine serum albumin (BSA; PanBiotech, Ref: P06-1391100, Batch: H140904). Only the ventral portions of the mesencephalic flexure were used for the cell preparations as this region of the developing brain is rich in dopaminergic neurons. The midbrains were dissociated by trypsinisation for 20 minutes (min) at 37° C. (Trypsin EDTA 1×; PanBiotech, Ref: P10-023100, batch: 1670415). The reaction was stopped by the addition of Dulbecco's modified Eagle's medium (DMEM; PanBiotech, Ref: P04-03600, Batch: 9021115) containing DNase I grade II (0.1 mg/ml; PanBiotech, Ref: P60-37780100, Batch: H140508) and 10% of fetal calf serum (FCS; Invitrogen, Ref: 10270-098, Batch: 41G8542K). Cells were then mechanically dissociated by 3 passages through a 10 ml pipet. Cells were then centrifuged at 180×g for 10 min at 4° C. on a layer of BSA (3.5%) in L15 medium. The supernatant was discarded and the cell pellets were re-suspended in a defined culture medium consisting of Neurobasal (Invitrogen, Ref: 21103, Batch: 1754639) supplemented with B27 (2%; Invitrogen, ref: 17504, batch: 1799273), L-glutamine (2 mM; PanBiotech, Ref: P04-80100, Batch: 6620314) and 2% of PS. Viable cells were counted in a Neubauer cytometer using the trypan blue exclusion test. The cells were seeded at a density of 70000 cells/well in 96 well-plates (pre-coated with poly-D-lysine; Greiner, Ref: E150033VJ) and were cultured at 37° C. in a humidified air (95%)/CO2 (5%) atmosphere. Half of the medium was changed every 2 days with fresh medium. […]

On to `CCC(C/C=C/c1ccccc1)(c1ccccc1)N(C)CC1CC1` (single isomer, unassigned; (+)) [igmesine, (+)-(E)-N-(cyclopropylmethyl)-N-methyl-3,6-diphenylhex-5-en-3-amine], for which the DARPP32 positive neurons is given as 89.28 % of the control (0.3 μM) and 81.60 % of the control (1 μM).

B1: BDNF: Brain-derived neurotrophic factor, used as a reference compound (protein, UniProt P23560 19-247, looked up)
Neurotrophic factor BDNF …: APMKEANIRGQGGLAYPGVRTHGTLESVNGPKAGSRGLTSLADTFEHVIEELLDEDQKVRPNEENNKDADLYTSRVMLSSQVPLEPPLLFLLEEYKNYLDAANMSMRVRRHSDPARRGELSVCDSISEWVTAADKKTAVDMSGGTVTVLEKVPVSKGQLKQYFYETKCNPMGYTKEGCRGIDKRHWNSQCRTTQSYVRALTMDSKKRIGWRFIRIDTSCVCTLTIKRGR
Take B1: the DARPP32 positive neurons (10 ng/mL) is on record as 90.14 % of the control.

For the origin of these results see patent US11129801B2 (SigmaThera SAS, priority 2016, dated 2021).
